Like-named read-outs stand apart in the source and are kept apart here.
Assays:
[1] = biological target: T1, EGFR (Homo sapiens, UniProt P00533); assay: Kinase inhibition, mobility shift assay; format: biochemical; conditions: for Single-concentration inhibitory activity against EGFR, Mean (100% inhibition): compound concentration 80 nM; for IC50: wild-type EGFR, read-out: Inhibitory activity (IC50) on EGFR
T1 construct: purchased Carna 14-531
Method: (§1) According to relevant literature, the inhibitory activity of five kinases (EGFR, EGFR-LT, EGFR-LTC, BTK, JAK3) were tested. Note: EGFR, EGFR-LT, EGFR-LTC: wild-type EGFR, L858R/T790M (EGFR-LT), or L858R/T790M/C797S (EGFR-LTC) mutant protein.
(§2) 95 μl of 100% DMSO was added to the first well of a 96-well plate, and then 5 μl of 10 mM compound solution was added to prepare a 500 μM compound solution.
(§3) 10 μl solution was taken out from the 50-fold concentration of compound solution (prepared and tested), and transferred to a 96-well plate, to which was added 90 μl kinase buffer to prepare a 5-fold concentration of compound solution.
(§4) 5 μl solution was taken out from the 5-fold concentration of compound solution in a 96-well plate, and transferred to a 384-well reaction plate. For example, the solution was transferred from well A1 of a 96-well plate to wells A1 and A2 of a 384-well plate, from well A2 of a 96-well plate to wells A3 and A4 of a 384-well plate, and so on.
(§5) 1) The kinase was added to 1× kinase buffer to form 2.5× kinase solution;
(§6) 2) 10 μl of the above 2.5× kinase solution was transferred to a 384-well reaction plate, and 1× kinase buffer was added to the negative control well, then incubated for 10 min at room temperature;
(§7) 3) FAM-labeled polypeptide and ATP were added to 1× kinase buffer to form a 2.5×substrate solution;
(§8) 5) The 384-well reaction plate was incubated at 28° C. for 60 min, to which was added 30 μl of stop solution to stop the reaction, and the model of biochemical incubator was SPX-100B-Z.
(§9) The conversion rate was read on CaliperEZ Reader.
(§10) 1) The conversion rate data were copied from CaliperEZ Reader II;
(§11) 2) The conversion rate was converted into the inhibition rate;
(§12) Percent inhibition=(max−conversion)/(max−min)*100
(§13) “min” is the reading of the control well without enzyme; “max” is the reading of DMSO control well.
(§14) 3) IC50 values were fitted by using XLFit excel add-in version 5.4.0.8.
(§15) Fitting formula: Y=Bottom+(Top−Bottom)/(1+(IC50/X)^HillSlope)

[2] = biological target: T2, BTK (Homo sapiens, UniProt Q06187); assay: Kinase inhibition, mobility shift assay; format: biochemical; conditions: for Single-concentration inhibitory activity on BTK, Mean (100% inhibition): compound concentration 4 nM; for IC50: read-out: Inhibitory activity (IC50) on BTK
T2 construct: purchased Carna 08-180
T2 sequence (Q06187 whole entry): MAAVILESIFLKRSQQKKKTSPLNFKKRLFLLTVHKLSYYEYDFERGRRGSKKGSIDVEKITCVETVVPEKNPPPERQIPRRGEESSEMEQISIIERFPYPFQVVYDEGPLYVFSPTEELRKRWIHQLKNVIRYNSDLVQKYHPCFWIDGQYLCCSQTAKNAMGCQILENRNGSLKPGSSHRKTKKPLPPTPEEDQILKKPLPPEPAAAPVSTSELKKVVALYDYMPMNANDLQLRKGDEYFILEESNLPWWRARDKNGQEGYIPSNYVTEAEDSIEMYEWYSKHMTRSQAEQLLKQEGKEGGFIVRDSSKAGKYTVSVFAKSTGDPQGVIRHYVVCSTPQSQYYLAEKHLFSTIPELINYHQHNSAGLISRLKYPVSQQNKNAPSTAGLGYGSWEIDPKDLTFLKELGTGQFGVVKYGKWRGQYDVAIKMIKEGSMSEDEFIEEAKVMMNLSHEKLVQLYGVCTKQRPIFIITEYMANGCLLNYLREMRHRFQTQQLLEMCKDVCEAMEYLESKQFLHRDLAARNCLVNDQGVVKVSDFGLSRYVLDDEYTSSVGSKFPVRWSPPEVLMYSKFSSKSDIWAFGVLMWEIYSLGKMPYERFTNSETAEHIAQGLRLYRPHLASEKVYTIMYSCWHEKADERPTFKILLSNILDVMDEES
Method: as §1, §2, §3, §4, §5, §6, §7, §8, §9, §10, §11, §12, §13, §14, §15

[3] = biological target: T3, EGFR (T790M L858R) (Homo sapiens, UniProt P00533, L858R/T790M); assay: Kinase inhibition, mobility shift assay; format: biochemical; conditions: for Single-concentration inhibitory activity against EGFR T790M L858R, Mean (100% inhibition): compound concentration 2 nM; for IC50: EGFR L858R/T790M double mutation, read-out: Inhibitory activity (IC50) on EGFR (T790M L858R); for inhibitory activity against EGFR L858R/T790M higher than against wild-type EGFR: ratio of IC50 values wild-type EGFR / EGFR L858R/T790M
T3 construct: purchased Invitrogen PR8911A
T3 sequence (P00533 25-1210 T790M/L858R): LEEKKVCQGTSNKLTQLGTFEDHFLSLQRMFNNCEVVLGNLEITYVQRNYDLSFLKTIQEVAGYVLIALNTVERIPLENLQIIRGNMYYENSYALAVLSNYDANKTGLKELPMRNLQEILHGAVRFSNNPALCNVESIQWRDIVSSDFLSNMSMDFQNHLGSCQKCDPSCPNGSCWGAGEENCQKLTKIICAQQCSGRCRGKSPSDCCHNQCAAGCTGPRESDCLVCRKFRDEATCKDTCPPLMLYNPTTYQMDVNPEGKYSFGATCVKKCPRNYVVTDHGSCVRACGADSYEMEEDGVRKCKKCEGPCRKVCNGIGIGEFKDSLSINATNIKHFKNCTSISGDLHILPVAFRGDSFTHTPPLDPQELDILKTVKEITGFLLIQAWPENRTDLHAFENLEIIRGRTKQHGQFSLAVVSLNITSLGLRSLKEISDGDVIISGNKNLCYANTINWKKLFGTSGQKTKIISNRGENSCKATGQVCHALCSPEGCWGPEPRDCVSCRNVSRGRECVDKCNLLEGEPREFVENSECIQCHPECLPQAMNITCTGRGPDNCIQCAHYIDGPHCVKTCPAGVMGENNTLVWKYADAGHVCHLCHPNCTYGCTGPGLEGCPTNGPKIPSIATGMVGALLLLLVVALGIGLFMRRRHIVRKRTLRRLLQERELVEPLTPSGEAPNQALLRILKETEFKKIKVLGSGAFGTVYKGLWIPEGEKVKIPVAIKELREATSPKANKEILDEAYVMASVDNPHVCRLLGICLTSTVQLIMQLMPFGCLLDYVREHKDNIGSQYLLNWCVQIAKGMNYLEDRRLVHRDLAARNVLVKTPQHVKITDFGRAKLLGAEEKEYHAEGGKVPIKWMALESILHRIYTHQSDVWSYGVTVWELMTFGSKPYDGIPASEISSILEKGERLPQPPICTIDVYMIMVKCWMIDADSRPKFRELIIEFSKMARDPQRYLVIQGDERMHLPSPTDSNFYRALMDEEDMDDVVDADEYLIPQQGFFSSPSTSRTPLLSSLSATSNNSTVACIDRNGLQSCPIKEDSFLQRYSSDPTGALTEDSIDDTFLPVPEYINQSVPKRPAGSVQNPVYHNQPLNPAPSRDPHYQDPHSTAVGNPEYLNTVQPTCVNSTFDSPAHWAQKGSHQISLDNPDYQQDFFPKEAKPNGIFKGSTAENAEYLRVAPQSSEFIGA
Method: as §1, §2, §3, §4, §5, §6, §7, §8, §9, §10, §11, §12, §13, §14, §15

[4] = biological target: T4, JAK3 (Homo sapiens, UniProt P52333); assay: Kinase inhibition, mobility shift assay; format: biochemical; conditions: for Single-concentration inhibitory activity on JAK3, Mean (100% inhibition): compound concentration 1 nM; for IC50: read-out: Inhibitory activity (IC50) on JAK3
T4 construct: purchased Carna 08-046
T4 sequence (P52333 1-1124): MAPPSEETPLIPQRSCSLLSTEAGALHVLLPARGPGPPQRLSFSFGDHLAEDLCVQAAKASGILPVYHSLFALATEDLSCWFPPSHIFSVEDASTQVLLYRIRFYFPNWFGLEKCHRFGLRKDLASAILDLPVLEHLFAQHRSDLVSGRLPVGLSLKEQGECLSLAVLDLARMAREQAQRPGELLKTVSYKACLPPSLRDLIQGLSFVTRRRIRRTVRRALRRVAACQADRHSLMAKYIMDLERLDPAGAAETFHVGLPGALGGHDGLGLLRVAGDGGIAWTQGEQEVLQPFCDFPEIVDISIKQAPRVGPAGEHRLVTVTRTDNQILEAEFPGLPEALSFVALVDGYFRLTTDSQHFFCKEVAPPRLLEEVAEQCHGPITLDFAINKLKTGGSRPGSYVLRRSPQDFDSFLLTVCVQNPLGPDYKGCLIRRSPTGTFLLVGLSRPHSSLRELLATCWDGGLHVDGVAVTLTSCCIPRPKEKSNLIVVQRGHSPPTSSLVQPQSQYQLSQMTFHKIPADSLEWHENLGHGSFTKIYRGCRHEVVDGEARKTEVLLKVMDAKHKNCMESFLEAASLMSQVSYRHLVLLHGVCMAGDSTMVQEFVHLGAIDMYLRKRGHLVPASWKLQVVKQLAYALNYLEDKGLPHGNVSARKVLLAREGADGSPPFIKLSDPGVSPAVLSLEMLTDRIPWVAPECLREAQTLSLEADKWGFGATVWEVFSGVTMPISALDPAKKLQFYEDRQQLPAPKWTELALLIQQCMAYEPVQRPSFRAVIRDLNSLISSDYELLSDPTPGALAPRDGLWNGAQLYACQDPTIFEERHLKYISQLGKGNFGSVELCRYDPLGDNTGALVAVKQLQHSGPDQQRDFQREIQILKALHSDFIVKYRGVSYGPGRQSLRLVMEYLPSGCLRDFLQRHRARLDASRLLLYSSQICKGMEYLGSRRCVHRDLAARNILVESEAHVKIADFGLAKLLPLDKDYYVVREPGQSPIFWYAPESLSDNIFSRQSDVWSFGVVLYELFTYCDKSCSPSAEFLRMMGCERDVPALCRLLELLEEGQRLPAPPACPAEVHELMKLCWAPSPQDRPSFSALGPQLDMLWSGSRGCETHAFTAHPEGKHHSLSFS
Method: as §1, §2, §3, §4, §5, §6, §7, §8, §9, §10, §11, §12, §13, §14, §15

[5] = test system: HCC827 cells; assay: Inhibition of cell proliferation, CCK8 method; format: cell-based, human; conditions: for IC50: HCC827 EGFR mutant cells, 48 h, CCK8, read-out: Inhibitory activity (IC50) against HCC827; for selectivity for HCC827 cells (in words): EGFR mutant HCC827 cells versus other cell lines
Method: The stock solution was diluted with the corresponding culture medium to the required concentration just before the experiment.
HBE cells and BEAS-2B cells are normal lung bronchial epithelial cell lines, and both cells were cultured in DMEM high glucose medium (supplemented with 10% fetal bovine serum and 1% double antibody) to the logarithmic growth phase; H460 cells, A549 cells, H1975 cells and HCC827 cells are lung cancer cell lines, and all of them were cultured in RPMI1640 medium (supplemented with 10% fetal bovine serum and 1% double antibody) to the logarithmic growth phase. Among them, H1975 cells and HCC827 cells are EGFR mutant cells.
The cells were counted, and then seeded in a 96-well plate at a density of 5000 cells/well, 100 μl for each well. The culture plate was moved into a CO2 incubator and incubated for 24 h at 37° C. and 5% CO2. Compounds at different concentrations were added to each well, 5 replicate wells for each concentration, and the cells were treated with the compounds for 48 hours. CCK8 detection reagent was added to each well according to the operation manual, and then the plate was further incubated for 1 h before terminating the culture. 450 nm wavelength was chosen, and the absorbance value of each well was adjusted on the microplate ELISA analyzer. The result was recorded. […] was taken as the horizontal axis, and absorbance as the vertical axis to plot a curve. The half inhibitory concentration (IC50) was calculated by Bliss method. Each experiment was repeated at least 3 times.
Normal lung cell lines and different lung cancer cell lines were selected for experiments.

T1 sequence (P00533 25-1210): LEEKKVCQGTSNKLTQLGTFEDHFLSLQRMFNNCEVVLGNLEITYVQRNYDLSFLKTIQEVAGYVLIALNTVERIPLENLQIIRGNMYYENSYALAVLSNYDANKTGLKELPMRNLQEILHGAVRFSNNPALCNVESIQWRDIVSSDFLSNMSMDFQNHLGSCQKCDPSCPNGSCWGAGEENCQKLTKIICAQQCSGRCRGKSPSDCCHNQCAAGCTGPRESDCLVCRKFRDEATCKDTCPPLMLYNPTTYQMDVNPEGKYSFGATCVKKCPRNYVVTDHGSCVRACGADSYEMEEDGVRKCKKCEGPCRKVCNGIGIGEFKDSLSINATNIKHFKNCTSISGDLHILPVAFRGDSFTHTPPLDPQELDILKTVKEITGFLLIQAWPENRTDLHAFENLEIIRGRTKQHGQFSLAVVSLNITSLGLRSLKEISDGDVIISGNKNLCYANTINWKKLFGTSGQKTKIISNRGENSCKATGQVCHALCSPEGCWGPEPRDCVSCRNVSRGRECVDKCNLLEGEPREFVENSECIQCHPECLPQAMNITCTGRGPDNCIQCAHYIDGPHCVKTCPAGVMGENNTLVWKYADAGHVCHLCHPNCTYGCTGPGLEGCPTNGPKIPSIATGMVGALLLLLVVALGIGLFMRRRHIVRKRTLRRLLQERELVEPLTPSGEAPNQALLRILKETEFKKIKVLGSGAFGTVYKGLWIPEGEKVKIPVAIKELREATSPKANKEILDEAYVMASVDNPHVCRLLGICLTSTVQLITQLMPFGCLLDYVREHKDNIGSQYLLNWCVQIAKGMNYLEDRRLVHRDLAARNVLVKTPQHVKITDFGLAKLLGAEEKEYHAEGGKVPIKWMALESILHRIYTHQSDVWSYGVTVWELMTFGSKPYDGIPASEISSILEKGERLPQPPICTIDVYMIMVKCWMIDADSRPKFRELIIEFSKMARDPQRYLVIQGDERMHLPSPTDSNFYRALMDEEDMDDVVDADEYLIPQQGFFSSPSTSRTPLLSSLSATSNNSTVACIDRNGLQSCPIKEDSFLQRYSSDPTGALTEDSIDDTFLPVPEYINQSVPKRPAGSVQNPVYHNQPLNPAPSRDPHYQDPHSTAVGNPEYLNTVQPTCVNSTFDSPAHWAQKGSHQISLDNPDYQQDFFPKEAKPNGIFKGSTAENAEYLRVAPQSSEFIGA

SMILES	Single-concentration inhibitory activity against EGFR, Mean (100% inhibition) [1] [% inhibition]	Single-concentration inhibitory activity on BTK, Mean (100% inhibition) [2] [% inhibition]	Single-concentration inhibitory activity against EGFR T790M L858R, Mean (100% inhibition) [3] [% inhibition]	Single-concentration inhibitory activity on JAK3, Mean (100% inhibition) [4] [% inhibition]	IC50 [5] [nM]	IC50 [1] [nM]	IC50 [2] [nM]	IC50 [3] [nM]	inhibitory activity against EGFR L858R/T790M higher than against wild-type EGFR [3] [fold]	IC50 [4] [nM]	selectivity for HCC827 cells (in words) [5]	IC50 ([5]; Homo sapiens) [nM]	selectivity coefficient ([5]; IC50 values against HBE cells compared with HCC827 cells)	inhibitory activity on HCC827 cells (in words) ([5]; CCK8, 48 h)
C=CC(=O)Nc1cccc(Oc2nc(Nc3ccc(N4CCN(C)CC4)c(Cl)c3)nc3[nH]ccc23)c1 [Compound 2]	86	37	92	77	120									
C=CC(=O)Nc1cccc(Oc2nc(Nc3ccc(N4CCN(C)CC4)c(OC)c3)nc3[nH]ccc23)c1 [Compound 4]	32	15	42	26		217	31	3.1	70	2.3	high targeting selectivity	260		
C=CC(=O)Nc1cccc(Oc2nc(Nc3ccc(N4CCN(C)CC4)c([N+](=O)[O-])c3)nc3[nH]ccc23)c1 [Compound 5]	37	3.8	49	23		145	43	2.7	54	2.2		100		
C=CC(=O)Nc1cccc(Oc2nc(Nc3ccc(N4CCN(C)CC4)c(N)c3)nc3[nH]ccc23)c1 [Compound 6]	63	27	36	29		64	11	3.4	18	2.2	high targeting selectivity	46	exceeds 490 times	
C=CC(=O)Nc1cccc(Oc2nc(Nc3ccc(N4CCN(C)CC4)c([N+](=O)[O-])c3)nc3c2ccn3COC(=O)C(C)(C)C)c1 [Compound 7]	4.7	5.9	3.5	−1.4								440		
C=CC(=O)Nc1cccc(Oc2nc(Nc3ccc(N4CCN(C)CC4)c(N)c3)nc3c2ccn3COC(=O)C(C)(C)C)c1 [Compound 8]	4.5	−2.9	2.4	−7.6								330		certain inhibitory effect
C=CC(=O)Nc1cccc(Oc2nc(Nc3ccc(N4CCN(C)CC4)c(I)c3)nc3c2ccn3COC(=O)C(C)(C)C)c1 [Compound 9]	3.6	3.3	0.1	−4.0								51700		

From patent publication US20230075765A1, “PYRROLO[2,3-D]PYRIMIDINE DERIVATIVE TARGETING EGFR MUTATION, AS WELL AS THE PREPARATIVE METHOD AND THE USE THEREOF” (WEST CHINA HOSPITAL, SICHUAN UNIVERSITY, priority 2020, published 2023)
